Reference: US20250295648A1 (priority 2024, published 2025)

Key:
[1] = tested on: overall PD symptoms in PD patients with LID; assay: Clinical Global Impression of Change (CGI-C); type: in vivo, human
Source text: The CGI-C is a clinician-oriented scale that assesses the total improvement in the patient's condition relative to the clinical global impression of severity (CGI-S) scale conducted at baseline. The CGI-C rates the patient's condition from 0 to 7, with a rating of 0 indicating “no assessment”, a rating of 1 indicating “very much better”, and a rating of 7 indicating “very much worse”.

PD patients with LID [2] = assay: Hospital Anxiety Depression Scale (HADS); type: in vivo, human
Source text: The HADS is used to determine the levels of anxiety and depression that a person is experiencing. The questionnaire consists of 7 items related to anxiety and 7 related to depression. Each item on the questionnaires is scored from 0-3, which means that a person can score between 0 and 21 for either anxiety or depression.

PD patients with LID [3] = assay: Epworth Sleepiness Scale (ESS); type: in vivo, human; details: for ESS, mean change from baseline: per-protocol set
Source text: The ESS is a self-administered questionnaire with 8 questions. Respondents are asked to rate, on a 4-point scale (0-3), their usual chances of dozing off or falling asleep while engaged in 8 different activities. The ESS score (the sum of 8 item scores, 0-3) can range from 0 to 24. Ratings are based on the previous month, or in the case of this study, the intervening period since the previous clinic visit (about 3 weeks).

[4] = both, human, in vivo
Source text: Based on the befiradol Cmax values observed in healthy male volunteers reported in WO 2016/005527, the sustained release compositions disclosed above in Tables 26-28 would be expected to provide Cmax values not less than those shown in Table 29 after a single oral administration to patients with Parkinson's disease. […] Therefore, the Cmax values in Table 29 for SR1-SR9 may be higher (e.g., by 10% or 20%) when administered to patients with Parkinson's disease since young adults rarely experience Parkinson's disease, which usually develops around age 60 or older.

striatal 5-HT release = details: rat, in vivo; cited from earlier work
[5] = per-protocol set (n = 15), Baseline
[6] = per-protocol set, Δ D 28 (end of up-titration)

Cc1ccc(CNCC2(F)CCN(C(=O)c3ccc(F)c(Cl)c3)CC2)nc1 [NLX-112, (3-chloro-4-fluoro-phenyl)-[4-fluoro-4-{[(5-methyl-pyridin-2-ylmethyl)-amino]-methyl}piperidin-1-yl]methanone]
CGI-C: proportion of patients minimally, much or very much improved ([1]; Day 28): 33% | CGI-C: proportion of patients minimally, much or very much improved ([1]; Day 42): 53% | CGI-C Minimally improved, number of patients ([1]; Stable Dosing (d 42), n = 15): 3 | CGI-C Minimally improved, proportion of patients ([1]; Stable Dosing (d 42), n = 15): (20%) | CGI-C Minimally worse, number of patients ([1]; Stable Dosing (d 42), n = 15): 1 | CGI-C Minimally worse, proportion of patients ([1]; Stable Dosing (d 42), n = 15): (6.7%) | CGI-C Much improved, number of patients ([1]; Stable Dosing (d 42), n = 15): 4 | CGI-C Much improved, proportion of patients ([1]; Stable Dosing (d 42), n = 15): (27%) | CGI-C No change, number of patients ([1]; Stable Dosing (d 42), n = 15): 6 | CGI-C No change, proportion of patients ([1]; Stable Dosing (d 42), n = 15): (40%) | CGI-C Total Improved, number of patients ([1]; Stable Dosing (d 42), n = 15): 8 | CGI-C Total Improved, proportion of patients ([1]; Stable Dosing (d 42), n = 15): (53%) | CGI-C Very much improved, number of patients ([1]; Stable Dosing (d 42), n = 15): 1 | CGI-C Very much improved, proportion of patients ([1]; Stable Dosing (d 42), n = 15): (6.7%) | CGI-C Minimally improved, number of patients ([1]; Up-Titration (d 28), n = 15): 3 | CGI-C Minimally improved, proportion of patients ([1]; Up-Titration (d 28), n = 15): 20% | CGI-C Minimally worse, number of patients ([1]; Up-Titration (d 28), n = 15): 1 | CGI-C Minimally worse, proportion of patients ([1]; Up-Titration (d 28), n = 15): 6.7% | CGI-C Much improved, number of patients ([1]; Up-Titration (d 28), n = 15): 2 | CGI-C Much improved, proportion of patients ([1]; Up-Titration (d 28), n = 15): 13% | CGI-C No change, number of patients ([1]; Up-Titration (d 28), n = 15): 9 | CGI-C No change, proportion of patients ([1]; Up-Titration (d 28), n = 15): 60% | CGI-C Total Improved, number of patients ([1]; Up-Titration (d 28), n = 15): 5 | CGI-C Total Improved, proportion of patients ([1]; Up-Titration (d 28), n = 15): 33% | CGI-C Very much improved, number of patients ([1]; Up-Titration (d 28), n = 15): 0 | CGI-C overall PD symptoms, NLX-112 vs placebo ([1]; days 28 and 42): no statistically significant differences | anxiety and depression (HADS) (PD patients with LID [2]; Days 28 or 42): no consistent statistically significant effect | HADS (Anxiety), mean (PD patients with LID [2]; [5]): 4.5 | HADS (Depression), mean (PD patients with LID [2]; [5]): 3.7 | HADS (Anxiety), mean change from baseline (PD patients with LID [2]; [6]): −0.5 | HADS (Depression), mean change from baseline (PD patients with LID [2]; [6]): −0.4 | HADS (Depression), mean change from baseline (PD patients with LID [2]; per-protocol set, Δ D 42 (end of stable dosing)): −0.6 | sleepiness (ESS) (PD patients with LID [3]; Days 28 or 42): no consistent statistically significant effect | ESS, mean (PD patients with LID [3]; [5]): 8.3 | ESS, mean change from baseline (PD patients with LID [3]; Δ D 28 (end of up-titration)): −1.1 | ESS, mean change from baseline (PD patients with LID [3]; Δ D 42 (end of stable dosing)): −0.9 | Cmax in female subjects, higher than males [4]: 20%-40 | striatal 5-HT release and dopamine surge following L-DOPA (striatal 5-HT release): inhibited striatal 5-HT release and blunted the ‘dopamine surge’
